In article PMC8041284, “Tunable Methacrylamides for Covalent Ligand Directed Release Chemistry” (Journal of the American Chemical Society, 2021):
Read-outs that look alike come from different tables or passages of the source. *1 amine or outer side, *2 acyl side, *3 side chain or, on linkers, in order; H or OH if unused. Where a SMILES comes first, the peptide text is derived from it. Bridges are numbered along the chain shown (N, C = ends). [ ]: non-standard residue; d: D form. The star is where a group is joined. pTerphenylCO(4''-OnC5H11) = CCCCCOc1ccc(-c2ccc(-c3ccc(C(=O)*)cc3)cc2)cc1; Orn(4R-OH,5R-OH) = O=C([C@H](C[C@@H](O)[C@@H](O)N[*:3])N[*:1])[*:2]; hTyr(3S-OH,4S-OH) = N[C@H](C(=O)O)[C@H](O)[C@@H](O)c1ccc(O)cc1; Pro(3S-OH,4S-Me) = C[C@H]1CN[C@H](C(=O)O)[C@H]1O; Hyp = O=C(O)[C@@H]1C[C@@H](O)CN1

Target: BTK (Homo sapiens, UniProt Q06187)
Sequence (Q06187 402-655 limits assumed): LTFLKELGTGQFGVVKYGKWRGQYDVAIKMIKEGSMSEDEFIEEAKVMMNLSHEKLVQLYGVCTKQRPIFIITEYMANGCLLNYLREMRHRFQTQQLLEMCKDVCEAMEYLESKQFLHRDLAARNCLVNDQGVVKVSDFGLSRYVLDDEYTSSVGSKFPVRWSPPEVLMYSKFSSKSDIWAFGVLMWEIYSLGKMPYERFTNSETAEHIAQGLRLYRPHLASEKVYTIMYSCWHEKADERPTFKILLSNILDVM
Assay: biochemical
[1] = read-out: BTK inhibition (%), 0.75 uM BTK, […] probe 3l, 15 min preincubation

## CCCCCOc1ccc(-c2ccc(-c3ccc(C(=O)N[C@H]4C[C@@H](O)[C@@H](O)NC(=O)[C@@H]5[C@@H](O)[C@@H](C)CN5C(=O)[C@H]([C@@H](C)O)NC(=O)[C@H]([C@H](O)[C@@H](O)c5ccc(O)cc5)NC(=O)[C@@H]5C[C@@H](O)CN5C(=O)[C@H]([C@@H](C)O)NC4=O)cc3)cc2)cc1 [PCM-0214798] ({pTerphenylCO(4''-OnC5H11)}-[Orn(4R-OH,5R-OH)]T[Hyp][hTyr(3S-OH,4S-OH)]T[Pro(3S-OH,4S-Me)]; lactam 1-C)
[1]
  inhibition at 10 µM: 122%

## CS(=O)(=O)c1ccc(C(=O)Nc2ccc(Cl)c(-c3ccccn3)c2)c(Cl)c1 [PCM-0095048]
[1]
  inhibition at 10 µM: 6.2%

## CC1(C)O[C@@H]2C[C@H]3[C@@H]4CCC5=CC(=O)C=C[C@]5(C)[C@H]4[C@@H](O)C[C@]3(C)[C@]2(C(=O)CO)O1 [PCM-0214648]
[1]
  inhibition at 10 µM: 4.8%

## CO[C@H]1C[C@@H]2CC[C@@H](C)[C@@](O)(O2)C(=O)C(=O)N2CCCC[C@H]2C(=O)O[C@H]([C@H](C)C[C@@H]2CC[C@@H](OP(C)(C)=O)[C@H](OC)C2)CC(=O)[C@H](C)/C=C(\C)[C@@H](O)[C@@H](OC)C(=O)[C@H](C)C[C@H](C)/C=C/C=C/C=C/1C [PCM-0214600]
[1]
  inhibition at 10 µM: -16.6%

## Cc1ccc(S(=O)(=O)OCC(=O)Nc2ccc(C(=O)O)c(O)c2)cc1 [PCM-0094985]
[1]
  inhibition at 10 µM: 29.6%

## NCCc1ccccc1 [PCM-0091318]
[1]
  inhibition at 10 µM: 0%

## CC(C)=CCC[C@](C)(O)[C@H]1CC[C@]2(C)[C@@H]1[C@H](O)C[C@@H]1[C@@]3(C)CC[C@H](O)C(C)(C)[C@@H]3CC[C@]12C [PCM-0214857]
[1]
  inhibition at 10 µM: 21%

## C[C@@]12N[C@@H](Cc3ccccc31)c1ccccc12 [PCM-0086525]
read-out: BTK inhibition (%)
  inhibition at 10 µM: -25.7%

## C[C@]12C=CC(=O)C=C1CC[C@@H]1[C@@H]2[C@@H](O)C[C@@]2(C)[C@H]1CC[C@]2(O)C(=O)CO [PCM-0085835]
[1]
  inhibition at 10 µM: -7%

## CC1(C)C[C@@H]1C(=O)N/C(=C\CCCCSC[C@H](N)C(=O)O)C(=O)O [PCM-0216257]
[1]
  inhibition at 10 µM: -10%

## CCOC(=O)N1CCC(CN(Cc2ccc(Cl)cc2)Cc2ccc([N+](=O)[O-])s2)C1 (stereo not drawn) [PCM-0215989]
[1]
  inhibition at 10 µM: 20.1%

## COC(=O)c1cc(OC)c2c(c1-c1c(C(=O)OC)cc(OC)c3c1OCO3)OCO2 [PCM-0216065]
[1]
  inhibition at 10 µM: 2.8%

## CN(C)CCc1c[nH]c2ccc(Cn3cncn3)cc12 [PCM-0090241]
[1]
  inhibition at 10 µM: -3.1%

## COC(=O)c1ccc(O)cc1 [PCM-0215083]
[1]
  inhibition at 10 µM: -5.4%

## NCc1ccc(S(N)(=O)=O)cc1 [PCM-0085773]
[1]
  inhibition at 10 µM: -28.8%

## C[C@H](CCC(=O)O)[C@H]1CC[C@H]2[C@@H]3CC[C@@H]4C[C@H](O)CC[C@]4(C)[C@H]3CC[C@]12C [PCM-0214742]
[1]
  inhibition at 10 µM: -8.6%

## C[C@H]1COC2=C1C(=O)C(=O)c1c2ccc2c1CCCC2(C)C [PCM-0091097]
[1]
  inhibition at 10 µM: 15.6%

## O=C1C[C@@H](c2ccc(O)c(O)c2)Oc2cc(O)cc(O)c21 [PCM-0216409]
[1]
  inhibition at 10 µM: 29.3%

## Cc1ccc(C(C)C)cc1O [PCM-0215926]
[1]
  inhibition at 10 µM: -21.4%

## COc1cc(-c2ncn(/C=C\C(=O)OC(C)C)n2)cc(C(F)(F)F)c1 [PCM-0215247]
[1]
  inhibition at 10 µM: -11.6%

## C[C@H]1CC[C@@]2(OC1)O[C@H]1C[C@H]3[C@@H]4CC[C@@H]5C[C@@H](O[C@@H]6O[C@H](CO)[C@H](O)[C@H](O)[C@H]6O[C@@H]6O[C@H](CO)[C@@H](O)[C@H](O)[C@H]6O)CC[C@]5(C)[C@H]4CC[C@]3(C)[C@H]1[C@@H]2C [PCM-0216400]
[1]
  inhibition at 10 µM: 1.5%

## CC(C)CN(C[C@@H](O)[C@H](Cc1ccccc1)NC(=O)O[C@H]1CCOC1)S(=O)(=O)c1ccc(N)cc1 [PCM-0214738]
[1]
  inhibition at 10 µM: -41.2%

## NC(=O)N/N=C/c1ccc([N+](=O)[O-])o1 [PCM-0085977]
[1]
  inhibition at 10 µM: 0.8%

## CNCc1ccc(-c2[nH]c3cc(F)cc4c3c2CCNC4=O)cc1 [PCM-0095075]
[1]
  inhibition at 10 µM: 18.6%

## CN1CCN(c2ccc(C(=O)Nc3n[nH]c4ccc(Cc5cc(F)cc(F)c5)cc34)c(NC3CCOCC3)c2)CC1 [PCM-0215551]
[1]
  inhibition at 10 µM: 103%

## CC[C@H](C)[C@H](NC(=O)[C@H]([C@@H](C)CC)N(C)C(C)=O)C(=O)N[C@H](C(=O)N[C@@H](CC(C)C)C(=O)[C@@]1(C)CO1)[C@@H](C)O [PCM-0215680]
[1]
  inhibition at 10 µM: 23.9%

## O=C(O)C[C@H](O)C[C@H](O)/C=C/c1c(C2CC2)nc2ccccc2c1-c1ccc(F)cc1 [PCM-0095199]
[1]
  inhibition at 10 µM: -36.6%

## N#C[C@@H]1CCCN1C(=O)CNC12CC3CC(CC(O)(C3)C1)C2 [PCM-0095499]
[1]
  inhibition at 10 µM: 1.6%

## CCOC(=O)[C@H](CCc1ccccc1)N[C@H]1CCc2ccccc2N(CC(=O)O)C1=O [PCM-0086130]
[1]
  inhibition at 10 µM: -24.9%

## CCOC(=O)NCCCC(=O)NCCc1ccccc1 [PCM-0215356]
[1]
  inhibition at 10 µM: -17%

## Cn1ncc(Cl)c1-c1cc(C(=O)N[C@H](CN)Cc2ccc(F)c(F)c2)oc1Cl [PCM-0215609]
[1]
  inhibition at 10 µM: -7.6%

## C[C@@H]1O[C@H]2O[C@H]3[C@@H](OC[C@H](O)[C@@H]3O)OC(=O)[C@]34CCC(C)(C)C[C@H]3C3=CC[C@H]5[C@@]6(C)C[C@H](O)[C@H](O[C@@H]7O[C@H](CO)[C@@H](O)[C@H](O)[C@H]7O[C@@H]7OC[C@H](OC(=O)C[C@](C)(O)CC(=O)O[C@@H]1[C@@H](O[C@@H]1OC[C@@H](O)[C@H](O)[C@H]1O)[C@H]2O)[C@H](O)[C@H]7O)[C@@](C)(CO)[C@@H]6CC[C@@]5(C)[C@]3(C)CC4 [PCM-0214951]
[1]
  inhibition at 10 µM: 6.2%

## O=C(Nc1cn[nH]c1-c1nc2ccc(CN3CCOCC3)cc2[nH]1)NC1CC1 [PCM-0094942]
[1]
  inhibition at 10 µM: 93.8%

## CC1(C)CC(O)CC(C)(C)N1[O] [PCM-0095391]
read-out: BTK inhibition (%)
  inhibition at 10 µM: 10.3%

## CC1=CC(=O)c2ccccc2C1=O [PCM-0009823]
[1]
  inhibition at 10 µM: -3.1%

## C#C[C@]1(O)CC[C@H]2[C@@H]3CCC4=CCCC[C@@H]4[C@H]3C(=C)C[C@@]21CC [PCM-0214824]
[1]
  inhibition at 10 µM: 27.2%

## COc1ccc2[nH]cc(/C=C3\C(=O)Nc4ccc(NC(=O)CCN5CCCCC5)cc43)c2c1 [PCM-0216653]
[1]
  inhibition at 10 µM: 51.7%

## CC(C[N+](C)(C)C)OC(N)=O (stereo not drawn) [PCM-0064662]
[1]
  inhibition at 10 µM: -7%

## O=C(O)Cn1nnc(-c2cc(N3CCC(Oc4cc(F)ccc4Br)CC3)no2)n1 [PCM-0094989]
[1]
  inhibition at 10 µM: 4.1%

## COc1cc2ncnc(Nc3ccc(Oc4ccccc4)cc3C)c2cc1OC [PCM-0215704]
[1]
  inhibition at 10 µM: 110%

## CCN(CC)c1ccc2cc(-c3nc4ccccc4s3)c(=O)oc2c1 [PCM-0215963]
[1]
  inhibition at 10 µM: -5.1%

## CCOC(=O)C=P(c1ccccc1)(c1ccccc1)c1ccccc1 [PCM-0216183]
[1]
  inhibition at 10 µM: -14.7%

## Nc1ccc2ncnc(NCCc3ccc(Oc4ccccc4)cc3)c2c1 [PCM-0095674]
[1]
  inhibition at 10 µM: -4.1%

## Cc1c(-c2ccnn2C)cc(C(=O)NCc2ccc(S(C)(=O)=O)cn2)c(=O)n1-c1cccc(C(F)(F)F)c1 [PCM-0215318]
[1]
  inhibition at 10 µM: -3.1%

## O=c1cc(-c2ccc(O)c(O)c2)oc2c([C@@H]3O[C@H](CO)[C@@H](O)[C@H](O)[C@H]3O)c(O)cc(O)c12 [PCM-0216392]
[1]
  inhibition at 10 µM: -22.4%

## O=C(NC1CC1)c1cc(-c2cccs2)on1 [PCM-0215520]
[1]
  inhibition at 10 µM: -2.3%

## COc1ccc(C[C@@H]2c3cc(OC)c(OC)cc3CC[N@+]2(C)CCC(=O)OCCCCCOC(=O)CC[N@@+]2(C)CCc3cc(OC)c(OC)cc3[C@H]2Cc2ccc(OC)c(OC)c2)cc1OC [PCM-0095290]
[1]
  inhibition at 10 µM: -8.6%

## CC1=C(CSC(=S)N2CCCCC2)C(=O)c2ccccc2C1=O [PCM-0215883]
[1]
  inhibition at 10 µM: 21.6%
